Test results taken from publication PMC7366380, “Discovery of a Potent and Selective Covalent Inhibitor and Activity-Based Probe for the Deubiquitylating Enzyme UCHL1, with Antifibrotic Activity” (Journal of the American Chemical Society, 2020).
pIC50: −log10 of the molar value. Several values for one entry are separate records, joined by “and”; a condition that tells them apart may be missing. Equal values may be shown once.

Experiments:
OTUB2 = target: T1, OTUB2 (Homo sapiens, UniProt Q96DC9); assay: biochemical
T1 sequence (Q96DC9 1-234): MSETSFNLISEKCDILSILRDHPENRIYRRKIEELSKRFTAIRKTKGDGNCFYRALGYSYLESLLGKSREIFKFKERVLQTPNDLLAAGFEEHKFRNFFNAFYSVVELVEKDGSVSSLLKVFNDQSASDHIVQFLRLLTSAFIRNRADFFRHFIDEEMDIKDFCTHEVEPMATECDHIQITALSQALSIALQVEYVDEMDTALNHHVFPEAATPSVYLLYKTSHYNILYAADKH

[1] = target: DUBs and other proteins in HEK293 cells (Homo sapiens, UniProt O15372); assay: In-cell proteome-wide competitive ABPP, HEK293: other DUBs and proteins; settings: for Log2 reporter intensity values, EIF3H: TMT replicates; for Log2 reporter intensity values: EIF3H: competition with ABP 2, DMSO substract (FC); for Log2 reporter intensity values: EIF3H / Log2 reporter intensity values: replicates A-C; for Log2 t-test Difference / Log2 reporter intensity values: EIF3H
Sequence of DUBs and other proteins in HEK293 cells (Homo sapiens, UniProt O15372) (O15372 whole entry): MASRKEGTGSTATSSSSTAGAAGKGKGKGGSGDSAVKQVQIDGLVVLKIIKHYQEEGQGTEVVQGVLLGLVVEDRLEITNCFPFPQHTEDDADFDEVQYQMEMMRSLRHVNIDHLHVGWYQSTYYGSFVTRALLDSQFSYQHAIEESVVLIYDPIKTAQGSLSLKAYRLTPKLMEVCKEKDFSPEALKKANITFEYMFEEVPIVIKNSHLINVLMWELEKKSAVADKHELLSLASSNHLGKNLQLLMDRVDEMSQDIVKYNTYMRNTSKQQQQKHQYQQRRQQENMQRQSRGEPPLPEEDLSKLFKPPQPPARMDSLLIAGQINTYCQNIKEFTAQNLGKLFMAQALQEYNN

[2] = target: DUBs and other proteins in HEK293 cells (Homo sapiens, UniProt Q93009); assay: as above; settings: replicates A-C; for Log2 reporter intensity values: USP7: competition with ABP 2, DMSO substract (FC); for Log2 reporter intensity values: USP7, DMSO subtracted
Sequence of DUBs and other proteins in HEK293 cells (Homo sapiens, UniProt Q93009) (Q93009 whole entry): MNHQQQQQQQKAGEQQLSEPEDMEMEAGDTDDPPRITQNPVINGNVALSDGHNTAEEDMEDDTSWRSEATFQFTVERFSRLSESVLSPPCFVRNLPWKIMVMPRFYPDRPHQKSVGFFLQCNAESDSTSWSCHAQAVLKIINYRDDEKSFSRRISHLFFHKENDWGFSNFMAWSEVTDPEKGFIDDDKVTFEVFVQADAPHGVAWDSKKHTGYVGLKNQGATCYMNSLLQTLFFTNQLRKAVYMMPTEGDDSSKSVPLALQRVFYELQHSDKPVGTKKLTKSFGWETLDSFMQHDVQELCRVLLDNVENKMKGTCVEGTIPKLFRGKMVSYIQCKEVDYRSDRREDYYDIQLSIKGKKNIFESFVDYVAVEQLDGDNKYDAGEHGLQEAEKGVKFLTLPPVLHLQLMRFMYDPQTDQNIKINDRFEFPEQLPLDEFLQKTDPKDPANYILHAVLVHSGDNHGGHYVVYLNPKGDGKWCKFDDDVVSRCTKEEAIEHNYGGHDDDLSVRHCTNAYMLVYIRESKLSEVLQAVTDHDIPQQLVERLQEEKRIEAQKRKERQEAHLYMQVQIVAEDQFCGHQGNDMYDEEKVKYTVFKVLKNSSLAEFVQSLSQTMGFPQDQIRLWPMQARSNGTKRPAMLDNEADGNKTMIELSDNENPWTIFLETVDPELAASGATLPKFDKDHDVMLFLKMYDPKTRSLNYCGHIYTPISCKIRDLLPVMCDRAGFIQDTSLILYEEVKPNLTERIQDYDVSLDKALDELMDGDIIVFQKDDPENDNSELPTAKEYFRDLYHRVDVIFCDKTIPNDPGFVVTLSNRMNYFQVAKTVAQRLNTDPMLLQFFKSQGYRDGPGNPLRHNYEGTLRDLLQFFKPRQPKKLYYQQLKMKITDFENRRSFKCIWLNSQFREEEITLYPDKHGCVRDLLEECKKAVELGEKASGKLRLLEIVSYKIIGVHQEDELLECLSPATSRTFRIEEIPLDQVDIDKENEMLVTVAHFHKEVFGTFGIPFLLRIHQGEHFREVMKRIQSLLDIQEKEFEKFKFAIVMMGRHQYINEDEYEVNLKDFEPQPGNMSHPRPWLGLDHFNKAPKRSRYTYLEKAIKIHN

[3] = target: T2, DUBs and other proteins in HEK293 cells (Homo sapiens, UniProt Q96RU2); assay: as above; settings: replicates A-C; for Log2 reporter intensity values: USP28: competition with ABP 2, DMSO substract (FC); for Log2 reporter intensity values: USP28, DMSO subtracted
T2 sequence (Q96RU2 1-1077): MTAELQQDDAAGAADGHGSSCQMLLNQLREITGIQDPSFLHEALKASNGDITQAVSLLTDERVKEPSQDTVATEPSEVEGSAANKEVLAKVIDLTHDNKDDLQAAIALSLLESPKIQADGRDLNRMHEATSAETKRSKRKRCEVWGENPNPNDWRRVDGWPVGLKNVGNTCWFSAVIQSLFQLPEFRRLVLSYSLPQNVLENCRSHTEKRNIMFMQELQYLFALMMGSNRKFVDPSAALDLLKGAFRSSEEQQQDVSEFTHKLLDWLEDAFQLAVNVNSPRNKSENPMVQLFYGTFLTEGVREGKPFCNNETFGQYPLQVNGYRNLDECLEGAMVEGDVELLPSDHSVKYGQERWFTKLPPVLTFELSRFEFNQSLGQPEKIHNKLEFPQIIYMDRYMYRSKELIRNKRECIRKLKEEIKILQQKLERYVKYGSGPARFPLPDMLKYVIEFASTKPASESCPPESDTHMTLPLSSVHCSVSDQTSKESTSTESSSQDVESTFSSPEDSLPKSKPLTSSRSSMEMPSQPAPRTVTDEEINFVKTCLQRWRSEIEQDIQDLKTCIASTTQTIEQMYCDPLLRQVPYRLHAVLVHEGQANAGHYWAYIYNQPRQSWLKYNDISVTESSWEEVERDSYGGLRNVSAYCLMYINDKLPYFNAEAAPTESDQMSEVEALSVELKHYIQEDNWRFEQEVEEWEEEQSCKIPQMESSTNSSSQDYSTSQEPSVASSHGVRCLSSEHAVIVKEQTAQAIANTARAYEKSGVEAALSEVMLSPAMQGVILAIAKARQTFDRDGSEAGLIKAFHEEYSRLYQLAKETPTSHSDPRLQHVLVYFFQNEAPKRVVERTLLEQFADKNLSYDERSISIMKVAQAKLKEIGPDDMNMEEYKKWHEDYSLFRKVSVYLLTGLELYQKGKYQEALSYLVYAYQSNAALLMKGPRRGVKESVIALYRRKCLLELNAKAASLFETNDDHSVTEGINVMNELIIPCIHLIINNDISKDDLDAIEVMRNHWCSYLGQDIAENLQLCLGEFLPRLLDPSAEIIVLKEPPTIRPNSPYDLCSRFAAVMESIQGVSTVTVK

[4] = target: T3, DUBs and other proteins in HEK293 cells (Homo sapiens, UniProt Q9Y4E8); assay: as above; settings: replicates A-C; for Log2 reporter intensity values: USP15: competition with ABP 2, DMSO substract (FC); for Log2 reporter intensity values: USP15, DMSO subtracted
T3 sequence (Q9Y4E8 1-981): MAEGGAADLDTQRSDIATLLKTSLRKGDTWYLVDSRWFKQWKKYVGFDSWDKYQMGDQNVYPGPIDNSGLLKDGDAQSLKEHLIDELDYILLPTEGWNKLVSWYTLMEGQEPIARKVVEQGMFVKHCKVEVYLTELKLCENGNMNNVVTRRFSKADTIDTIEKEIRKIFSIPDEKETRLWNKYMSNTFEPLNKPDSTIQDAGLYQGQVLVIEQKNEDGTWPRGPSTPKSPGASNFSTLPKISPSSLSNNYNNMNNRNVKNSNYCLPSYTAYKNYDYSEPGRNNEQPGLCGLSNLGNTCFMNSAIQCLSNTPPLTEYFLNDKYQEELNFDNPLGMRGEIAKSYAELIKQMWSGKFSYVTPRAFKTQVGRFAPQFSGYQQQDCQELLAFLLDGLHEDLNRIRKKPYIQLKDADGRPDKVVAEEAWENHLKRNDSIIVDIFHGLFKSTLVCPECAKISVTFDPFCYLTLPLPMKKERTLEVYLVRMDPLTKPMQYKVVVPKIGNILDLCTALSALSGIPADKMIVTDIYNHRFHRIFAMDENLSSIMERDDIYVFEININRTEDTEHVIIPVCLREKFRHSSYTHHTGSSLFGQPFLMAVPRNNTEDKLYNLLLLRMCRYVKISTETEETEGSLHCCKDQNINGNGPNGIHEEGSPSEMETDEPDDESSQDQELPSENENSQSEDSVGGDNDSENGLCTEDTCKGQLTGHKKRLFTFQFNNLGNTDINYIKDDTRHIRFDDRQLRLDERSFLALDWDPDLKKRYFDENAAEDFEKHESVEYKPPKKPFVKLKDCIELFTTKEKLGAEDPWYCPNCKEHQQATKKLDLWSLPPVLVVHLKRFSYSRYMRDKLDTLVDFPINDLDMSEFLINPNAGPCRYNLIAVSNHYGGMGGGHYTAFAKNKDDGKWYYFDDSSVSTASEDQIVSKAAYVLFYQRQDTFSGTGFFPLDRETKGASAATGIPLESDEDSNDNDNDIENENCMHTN

N#CN1CCC[C@H]1C(=O)N1CCc2c(-c3c[nH]c4ncccc34)cccc21 [Compound 1]
pIC50 (OTUB2): < 5.00
Log2 reporter intensity values, EIF3H ([1]; 1 μM 1 (60 min) + 20 nM ABP 2 (10 min), All values): -0.09256 and -0.05547 and -0.03085
Log2 reporter intensity values, EIF3H ([1]; 1 μM 1 (60 min) + 20 nM ABP 2 (10 min), DMSO subtracted): -0.1222 and -0.08506 and -0.06044
Log2 reporter intensity values, EIF3H ([1]; 4 μM 1 (60 min) + 20 nM ABP 2 (10 min), All values): -0.07138 and -0.1308 and -0.1362
Log2 reporter intensity values, EIF3H ([1]; 4 μM 1 (60 min) + 20 nM ABP 2 (10 min), DMSO subtracted): -0.101 and -0.1603 and -0.1658
Log2 reporter intensity values: EIF3H ([1]; 1 at 1 μM): 0.9188 and 0.9427 and 0.959
Log2 reporter intensity values: EIF3H ([1]; 1 at 4 μM): 0.9324 and 0.8948 and 0.8914
Log2 t-test Difference ([1]; 1 - 1 μM): -0.08557
Log2 t-test Difference ([1]; 1 - 4 μM): -0.1387
Log2 reporter intensity values ([1]; 1_1 μM, DMSO subtracted): -0.08133 and -0.0574 and -0.04117
Log2 reporter intensity values ([1]; 1_4 μM, DMSO subtracted): -0.06774 and -0.1053 and -0.1087
Log2 reporter intensity values ([1]; 1 at 1 μM, DMSO subtracted): -0.1222 and -0.08506 and -0.06044
Log2 reporter intensity values ([1]; 1 at 4 μM, DMSO subtracted): -0.101 and -0.1603 and -0.1658
Log2 reporter intensity values: USP7 ([2]; 1 at 1 μM): 1.015 and 0.998 and 1.012
Log2 reporter intensity values: USP7 ([2]; 1 at 4 μM): 1.024 and 0.9908 and 1.009
Log2 reporter intensity values ([2]; 1_1 μM): 0.01464 and -0.002291 and 0.01166
Log2 reporter intensity values ([2]; 1_4 μM): 0.02367 and -0.009481 and 0.008925
Log2 reporter intensity values ([2]; 1 at 1 μM): 0.02137 and -0.002902 and 0.01712
Log2 reporter intensity values ([2]; 1 at 4 μM): 0.03415 and -0.01333 and 0.01322
Log2 reporter intensity values: USP28 ([3]; 1 at 1 μM): 0.9959 and 0.8739 and 1.601
Log2 reporter intensity values: USP28 ([3]; 1 at 4 μM): 1.351 and 1.583 and 1.105
Log2 reporter intensity values ([3]; 1_1 μM): -0.04385 and -0.1658 and 0.561
Log2 reporter intensity values ([3]; 1_4 μM): 0.3117 and 0.5434 and 0.06533
Log2 reporter intensity values ([3]; 1 at 1 μM): -0.005982 and -0.1944 and 0.6787
Log2 reporter intensity values ([3]; 1 at 4 μM): 0.4345 and 0.6627 and 0.1441
Log2 reporter intensity values: USP15 ([4]; 1 at 1 μM): 0.9886 and 1.029 and 1.017
Log2 reporter intensity values: USP15 ([4]; 1 at 4 μM): 1.093 and 1.191 and 1.05
Log2 reporter intensity values ([4]; 1_1 μM): -0.01164 and 0.02918 and 0.01631
Log2 reporter intensity values ([4]; 1_4 μM): 0.09302 and 0.1906 and 0.04957
Log2 reporter intensity values ([4]; 1 at 1 μM): -0.0165 and 0.04186 and 0.02371
Log2 reporter intensity values ([4]; 1 at 4 μM): 0.1287 and 0.252 and 0.07016
